pIC50, pKi: −log10 of the molar value. Read-outs that look alike come from different tables or passages of the source.
How the values were obtained:
human NK-1 receptor = human NK-1 receptor (Homo sapiens (Human), UniProt P25103); experiment: Selectivity assay: [3H] substance P binding, human NK-1 receptor; conditions: 2 nM [3H] substance P, CHO membranes; read-out: hNK-1 (Ki)
Experimental: Selectivity of the compounds of the invention was determined over the other human NK receptors, namely NK-1 and NK-2 receptors.
The affinity of compounds of the invention for the NK-1 receptor was evaluated in CHO recombinant cells which express the human NK-1 receptor. Membrane suspensions were prepared from these cells. The following radioligand: [^3H] substance P (PerkinElmer Cat #NET111520) was used in this assay. Binding assays were performed in a 50 mM Tris/5 mM MnCl2/150 mM NaCl/0.1% BSA at pH 7.4. Binding assays consisted of 25 μl of membrane suspension (approximately 5 μg of protein/well in a 96 well plate), 50 μl of compound or reference ligand (Substance P) at increasing concentrations (diluted in assay buffer) and 2 nM [^3H] substance P. The plate was incubated 60 min at 25° C. in a water bath and then filtered over GF/C filters (Perkin Elmer, 6005174, presoaked in 0.5% PEI for 2 h at room temperature) with a Filtration unit (Perkin Elmer). The radioactivity retained on the filters was measured by using the TopCount-NXT reader (Packard).

human NK-3 receptor [1] = biological target: T1, human NK-3 receptor (Homo sapiens (Human), UniProt P29371); experiment: Aequorin functional assay with human NK-3 receptor (antagonist testing vs NKA); assay type: cell-based; conditions: CHO cells, NKA at EC80 (3 nM); read-out: Functional assay: Aequorin assay with human NK-3 receptor hNK-3-AEQ (antagonist IC50)
T1 sequence (P29371 whole entry): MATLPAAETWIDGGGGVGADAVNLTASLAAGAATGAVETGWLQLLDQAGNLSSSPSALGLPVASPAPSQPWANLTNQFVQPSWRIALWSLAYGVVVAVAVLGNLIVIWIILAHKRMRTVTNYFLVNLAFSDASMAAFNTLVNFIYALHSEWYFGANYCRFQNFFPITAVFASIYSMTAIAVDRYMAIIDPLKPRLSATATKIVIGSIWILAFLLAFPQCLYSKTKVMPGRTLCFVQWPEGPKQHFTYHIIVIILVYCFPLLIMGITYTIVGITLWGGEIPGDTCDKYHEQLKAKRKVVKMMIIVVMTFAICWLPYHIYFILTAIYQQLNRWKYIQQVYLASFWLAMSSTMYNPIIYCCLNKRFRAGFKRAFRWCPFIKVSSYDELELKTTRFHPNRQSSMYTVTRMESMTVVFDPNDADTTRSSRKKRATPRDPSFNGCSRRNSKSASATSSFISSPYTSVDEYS
Experimental: Aequorin Assay with Human NK-3 Receptor
Changes in intracellular calcium levels are a recognized indicator of G protein-coupled receptor activity. The efficacy of compounds of the invention to inhibit NKA-mediated NK-3 receptor activation was assessed by an in vitro Aequorin functional assay. Chinese Hamster Ovary recombinant cells expressing the human NK-3 receptor and a construct that encodes the photoprotein apoaequorin were used for this assay. In the presence of the cofactor coelenterazine, apoaequorin emits a measurable luminescence that is proportional to the amount of intracellular (cytoplasmic) free calcium.
The antagonist activity of compounds of the invention is measured following pre-incubation (3 minutes) of the compound (at various concentrations) with the cells, followed by addition of the reference agonist (NKA) at a final concentration equivalent to the EC80 (3 nM) and recording of emitted light (FDSS 6000 Hamamatsu) over the subsequent 90-second period. The intensity of the emitted light is integrated using the reader software. Compound antagonist activity is measured based on the concentration-dependent inhibition of the luminescence response to the addition of Neurokinin A.

plasma protein = experiment: Determination of plasma protein binding (equilibrium dialysis, RED); assay type: in vitro ADME; conditions: 4 hours at 37° C.
Source text: Determination of plasma protein binding The pharmacokinetic and pharmacodynamic properties of chemicals/drugs are largely a function of the reversible binding of chemicals to plasma or serum proteins. […] Consequently, the extent of the plasma protein binding (PPB) of a compound influences its action as well as its distribution and elimination.
The determination of plasma protein binding (PPB) of a compound is enabled by equilibrium dialysis, an accepted and standard method for reliable estimation of the non-bound drug fraction in plasma. RED (Rapid Equilibrium Dialysis) device insert is made of two side-by-side chambers separated by an O-ring-sealed vertical cylinder of dialysis membrane (MWCO ˜8,000). […] After 4 hours incubation at 37° C. under shaking, an aliquot is removed from each chamber and analyzed by a LC-MS/MS procedure enables the determination of both free and bound drug.
The “free fraction” may be calculated as 100%−% rPPB (i.e. the complementary percentage of that disclosed in Table 4, corresponding to the drug concentration that is unbound and therefore available to engage biological target and elicit pharmacological activity).

human NK-2 receptor = human NK-2 receptor (Homo sapiens (Human), UniProt P21452); experiment: Selectivity assay: [125I]-Neurokinin A binding, human NK-2 receptor; conditions: 0.1 nM [125I]-Neurokinin A, CHO membranes; read-out: hNK-2 (Ki)
human NK-2 receptor, sequence (P21452 whole entry): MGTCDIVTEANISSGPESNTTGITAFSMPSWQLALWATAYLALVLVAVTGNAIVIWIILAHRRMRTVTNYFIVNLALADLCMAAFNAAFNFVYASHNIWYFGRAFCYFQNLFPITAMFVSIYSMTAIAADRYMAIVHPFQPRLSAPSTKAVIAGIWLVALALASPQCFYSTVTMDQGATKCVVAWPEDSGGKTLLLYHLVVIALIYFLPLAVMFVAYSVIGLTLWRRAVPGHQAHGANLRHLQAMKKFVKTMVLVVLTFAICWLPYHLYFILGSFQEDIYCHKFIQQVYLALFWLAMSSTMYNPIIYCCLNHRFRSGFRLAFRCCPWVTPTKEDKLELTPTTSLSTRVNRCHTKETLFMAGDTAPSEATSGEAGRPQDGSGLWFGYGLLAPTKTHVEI
Experimental: The affinity of compounds of the invention for the NK-2 receptor was evaluated in CHO recombinant cells which express the human NK-2 receptor. Membrane suspensions were prepared from these cells. […] Binding assays were performed in a 25 mM HEPES/1 mM CaCl2)/5 mM MgCl2/0.5% BSA/10 μg/ml saponin, at pH 7.4. […] The radioactivity retained on the filters was measured by using the TopCount-NXT reader (Packard).

human NK-3 receptor [2] = biological target: T1, human NK-3 receptor; experiment: 3H-SB222200 binding competition assay with human NK-3 receptor
Experimental: The affinity of compounds of the invention for the human NK-3 receptor was determined by measuring the ability of compounds of the invention to competitively and reversibly displace a well-characterized NK-3 radioligand in a concentration-dependent manner.
^3H-SB222200 Binding Competition Assay with Human NK-3 Receptor
Membranes were prepared from Chinese hamster ovary recombinant cells stably expressing the human NK-3 receptor. The membranes were incubated with 5 nM ^3H-SB222200 (ARC) in a HEPES 25 mM/NaCl 0.1M/CaCl2 1 mM/MgCl2 5 mM/BSA 0.5%/Saponin 10 μg/ml buffer at pH 7.4 and various concentrations of compounds of the invention. The amount of ^3H-SB222200 bound to the receptor was determined after filtration by the quantification of membrane associated radioactivity using the TopCount-NXT reader (Packard).

[3] = Table 2, 5 nM 3H-SB222200, CHO membranes, read-out: Competitive binding assay with human NK-3 receptor hNK-3 (Ki)
[4] = Table 3 (selectivity table), read-out: hNK-3 (Ki)

human NK-1 receptor, sequence (P25103 whole entry): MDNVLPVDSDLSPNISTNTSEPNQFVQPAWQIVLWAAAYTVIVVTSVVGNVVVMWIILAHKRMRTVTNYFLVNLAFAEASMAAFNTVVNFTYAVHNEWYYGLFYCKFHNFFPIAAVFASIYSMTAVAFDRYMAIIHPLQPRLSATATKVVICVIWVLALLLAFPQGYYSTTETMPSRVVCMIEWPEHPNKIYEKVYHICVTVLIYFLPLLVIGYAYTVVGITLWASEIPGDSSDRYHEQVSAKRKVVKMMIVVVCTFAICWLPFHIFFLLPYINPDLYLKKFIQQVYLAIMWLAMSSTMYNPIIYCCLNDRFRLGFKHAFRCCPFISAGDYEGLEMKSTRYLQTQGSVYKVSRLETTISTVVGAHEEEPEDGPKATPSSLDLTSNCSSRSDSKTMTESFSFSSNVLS

Compound	pKi (human NK-1 receptor)	pIC50 (human NK-3 receptor [1])	Exposure (% rPPB), bound drug fraction to plasma protein (plasma protein)	pKi (human NK-2 receptor)	pKi (human NK-3 receptor [2]; [3])	pKi (human NK-3 receptor [2]; [4])
CCC1c2nnc(-c3nc(C)ns3)n2CCN1C(=O)c1ccc(F)cc1 (racemic) [Compound 23, (8-ethyl-3-(3-methyl-1,2,4-thiadiazol-5-yl)-5,6-dihydro-[1,2,4]triazolo[4,3-a]pyrazin-7(8H)-yl)(4-fluorophenyl)methanone]			34%			
Cc1nsc(-c2nnc3n2CCN(C(=O)c2ccc(F)c(F)c2F)C3C)n1 (racemic) [Compound 33, (8-methyl-3-(3-methyl-1,2,4-thiadiazol-5-yl)-5,6-dihydro-[1,2,4]triazolo[4,3-a]pyrazin-7(8H)-yl)(2,3,4-trifluorophenyl)methanone]	< 4.52	6.92	29%	< 4.52	7.05	7.05
Cc1nsc(-c2nnc3n2CCN(C(=O)c2cc(F)c(F)c(F)c2)C3C)n1 (racemic) [Compound 34, (8-methyl-3-(3-methyl-1,2,4-thiadiazol-5-yl)-5,6-dihydro-[1,2,4]triazolo[4,3-a]pyrazin-7(8H)-yl)(3,4,5-trifluorophenyl)methanone]	< 4.52	7.21	24%	< 4.52	7.42	7.42
Cc1nsc(-c2nnc3n2CCN(C(=O)c2ccc(F)c(Cl)c2)C3C)n1 (racemic) [Compound 35, (3-chloro-4-fluorophenyl)(8-methyl-3-(3-methyl-1,2,4-thiadiazol-5-yl)-5,6-dihydro-[1,2,4]triazolo[4,3-a]pyrazin-7(8H)-yl)methanone]	< 4.52	7.27	52%	4.52	7.14	7.14
Cc1nsc(-c2nnc3n2CCN(C(=O)c2ccc(Cl)c(F)c2)C3C)n1 (racemic) [Compound 36, (4-chloro-3-fluorophenyl)(8-methyl-3-(3-methyl-1,2,4-thiadiazol-5-yl)-5,6-dihydro-[1,2,4]triazolo[4,3-a]pyrazin-7(8H)-yl)methanone]	< 4.52	7.24	60%	4.44	7.37	7.37
CCc1nsc(-c2nnc3n2CCN(C(=O)c2ccc(F)cc2)C3C)n1 (racemic) [Compound 39, (3-(3-ethyl-1,2,4-thiadiazol-5-yl)-8-methyl-5,6-dihydro-[1,2,4]triazolo[4,3-a]pyrazin-7(8H)-yl)(4-fluorophenyl)methanone]	< 4.52	7.49	43%	< 4.52	7.55	7.55
CCc1noc(-c2nnc3n2CCN(C(=O)c2ccc(F)cc2)C3C)n1 (racemic) [Compound 40, (3-(3-ethyl-1,2,4-oxadiazol-5-yl)-8-methyl-5,6-dihydro-[1,2,4]triazolo[4,3-a]pyrazin-7(8H)-yl)(4-fluorophenyl)methanone]	< 4.52	6.89	24%	< 4.52	7.08	7.08
Cc1nsc(-c2nnc3n2CCN(C(=O)c2ccc(Cl)cc2)[C@@H]3C)n1 [Compound 3, (R)-(4-chlorophenyl)(8-methyl-3-(3-methyl-1,2,4-thiadiazol-5-yl)-5,6-dihydro-[1,2,4]triazolo[4,3-a]pyrazin-7(8H)-yl)methanone]	< 4.52	7.49		< 4.52	7.72	7.72
COc1cccc(C(=O)N2CCn3c(-c4nc(C)ns4)nnc3[C@H]2C)c1 [Compound 27, (R)-(3-methoxyphenyl)(8-methyl-3-(3-methyl-1,2,4-thiadiazol-5-yl)-5,6-dihydro-[1,2,4]triazolo[4,3-a]pyrazin-7(8H)-yl)methanone]			24%			

More lines, now with the values ahead:

pKi (human NK-1 receptor)	pIC50 (human NK-3 receptor [1])	Exposure (% rPPB), bound drug fraction to plasma protein (plasma protein)	pKi (human NK-2 receptor)	pKi (human NK-3 receptor [2]; [3])	pKi (human NK-3 receptor [2]; [4])	Compound
< 4.52	7.24	21%	< 4.52	7.38	7.38	Cc1nsc(-c2nnc3n2CCN(C(=O)c2ccc(F)cc2)C3C)n1 (racemic) [Compound 14, (4-fluorophenyl)(8-methyl-3-(3-methyl-1,2,4-thiadiazol-5-yl)-5,6-dihydro-[1,2,4]triazolo[4,3-a]pyrazin-7(8H)-yl)methanone]
< 4.52	7.19	31%	< 4.52	7.15	7.15	Cc1nsc(-c2nnc3n2CCN(C(=O)c2cc(F)c(F)c(F)c2F)C3C)n1 (racemic) [Compound 31, (8-methyl-3-(3-methyl-1,2,4-thiadiazol-5-yl)-5,6-dihydro-[1,2,4]triazolo[4,3-a]pyrazin-7(8H)-yl)(2,3,4,5-tetrafluorophenyl)methanone]
< 4.52	7.36	25%	< 4.52	7.23	7.23	Cc1nsc(-c2nnc3n2CCN(C(=O)c2ccc(F)c(F)c2)C3C)n1 (racemic) [Compound 32]
4.49	7.28		< 4.52	7.39	7.39	Cc1nsc(-c2nnc3n2CCN(C(=O)c2ccc(Cl)cc2)C3C)n1 (racemic) [Compound 37, (4-chlorophenyl)(8-methyl-3-(3-methyl-1,2,4-thiadiazol-5-yl)-5,6-dihydro-[1,2,4]triazolo[4,3-a]pyrazin-7(8H)-yl)methanone]
4.68	7.47	76%	4.55	7.59	7.59	Cc1nsc(-c2nnc3n2CCN(C(=O)c2ccc(Cl)c(Cl)c2)C3C)n1 (racemic) [Compound 38, (3,4-dichlorophenyl)(8-methyl-3-(3-methyl-1,2,4-thiadiazol-5-yl)-5,6-dihydro-[1,2,4]triazolo[4,3-a]pyrazin-7(8H)-yl)methanone]
4.66	7.14		< 4.52	7.49	7.49	Cc1nsc(-c2nnc3n2CCN(C(=O)c2ccc(F)cc2)[C@@H]3CCO)n1 [Compound 11, (R)-(4-fluorophenyl)(8-(2-hydroxyethyl)-3-(3-methyl-1,2,4-thiadiazol-5-yl)-5,6-dihydro-[1,2,4]triazolo[4,3-a]pyrazin-7(8H)-yl)methanone]
